How the values were obtained:
fly heart = assay: Drug application to the fly heart, induction of arrhythmias; format: in vivo, Drosophila; settings: HERG and KCNQ channels present in fly heart
Text: According to another embodiment of the invention, methods are provided for testing a compound for cardioactivity comprising: (a) providing a composition comprising an excised, denervated Drosophila heart that retains myogenic activity, and a physiologically acceptable hemolymph fluid in contact with said Drosophila heart; (b) contacting the composition with the compound; and (c) assessing the effect of the compound on the myogenic activity of the semi-intact Drosophila heart. In one such embodiment the method comprises assessing the effect of the compound on myogenic activity of the semi-intact Drosophila heart by producing images of the semi-intact Drosophila heart and analyzing the images. In another such embodiment, the method comprises determining a member of the group consisting of heart period, heart rate, diastolic interval, systolic interval, standard deviation of heart period, standard deviation of heart rate, standard deviation of diastolic interval, standard deviation of systolic interval, percent fractional shortening of heart contraction, arrhythmia index, velocity of heart muscle contraction, and directionality of heart muscle contraction.
These are thought to be due to drug effects on both HERG and KCNQ channels. […] Thus, this system can be used to screen for possible drug side effects.

patients = settings: some patients; thought to be due to effects on HERG and KCNQ channels; cited from earlier work

SMILES | induction of arrhythmias in the fly (fly heart) | induction of arrhythmias in patients (patients)
CCCCCCCN(CC)CCCC(O)c1ccc(NS(C)(=O)=O)cc1 (stereo not shown) [ibutilide] | induce arrhythmias in the fly | induce arrhythmias in some patients
CCCCCCC[N+](CC)(CC)CCCCc1ccc(Cl)cc1 [clofilium] | induce arrhythmias in the fly | induce arrhythmias in some patients

From patent US9186093B2, “Compositions and methods for screening cardioactive drugs” (THE REGENTS OF THE UNIVERSITY OF CALIFORNIA, priority 2008, dated 2015)
